# Tests used:
# [1] = log P by HPLC on reversed phase columns (EEC directive 79/831 Annex V.A8); type: physicochemical; conditions: method [a]: LC-MS at pH 2.7, 0.1% formic acid in water / acetonitrile gradient, Table 1 compounds; for chromatographic logP: reversed phase HPLC column
# Protocol: Calibration was done with not branched alkan2-ones (with 3 to 16 carbon atoms) with known log P-values (measurement of log P values using retention times with linear interpolation between successive alkanones). lambda-maX-values were determined using UV-spectra from 200 nm to 400 nm and the peak values of the chromatographic signals.
# Phytophthora infestans = type: in vivo; conditions: 500 ppm active ingredient, preventive spray on young tomato plants, evaluated 5 days after inoculation
# Plasmopara viticola = assay: Plasmopara test (grapevines)/preventive; type: in vivo; conditions: 10 ppm active ingredient, preventive spray on young grapevine plants, evaluated 6 days after inoculation
# Protocol: To produce a suitable preparation of active compound, 1 part by weight of active compound is mixed with the stated amounts of solvent and emulsifier, and the concentrate is diluted with water to the desired concentration.
# To test for preventive activity, young plants are sprayed with the preparation of active compound at the stated rate of application. After the spray coating has dried on, the plants are inoculated with an aqueous spore suspension of Plasmopara viticola and then remain for 1 day in an incubation cabinet at approximately 20° C. and a relative atmospheric humidity of 100%. The plant is subsequently placed for 4 days in a greenhouse at approximately 21° C. and a relative atmospheric humidity of approximately 90%. The plants are then misted and placed for 1 day in an incubation cabinet.
# The test is evaluated 6 days after the inoculation. 0% means an efficacy which corresponds to that of the untreated control, while an efficacy of 100% means that no disease is observed.
# Septoria tritici = assay: In vivo preventive test on Septoria tritici (leaf spot on wheat); conditions: 500 ppm active ingredient, preventive spray on young wheat plants, evaluated 24 days after inoculation
# Protocol: The tested active ingredients are prepared by homogenization in a mixture of acetone/Dimethyl sulfoxide/tween®, and then diluted with water to obtain the desired active material concentration.
# The young plants of wheat are treated by spraying the active ingredient prepared as described above. Control plants are treated only with an aqueous solution of acetone/Dimethyl sulfoxide/tween®.
# After 24 hours, the plants are contaminated by spraying the leaves with an aqueous suspension of Septoria tritici spores. The contaminated wheat plants are incubated for 72 hours at 18° C. and at 100% relative humidity and then for 21 days at 20° C. and at 90% relative humidity.
# The test is evaluated 24 days after the inoculation. 0% means an efficacy which corresponds to that of the control plants while an efficacy of 100% means that no disease is observed.
SMILES,LogP [1],% efficacy (Phytophthora infestans),chromatographic logP [1],% efficacy (Plasmopara viticola),% efficacy (Septoria tritici)
CC(=NOCc1ccccc1)Nc1cccc(CO/N=C(/c2ccccc2)c2noc(=O)n2C)n1 [Example 9],3.73^[a],100%,,,
Cn1c(/C(=N\OCc2cccc(C#CC3CC3)n2)c2ccccc2)noc1=O [Example 13],3.65^[a],,,,
Cn1c(C(=NOCc2csc(C#CC3CC3)n2)c2ccccc2)noc1=O [Example 17],3.76^[a],99%,,,
Cn1c(/C(=N\OCc2csc(C#CC3CCCCC3)n2)c2ccccc2)noc1=O [Example 16],5.08^[a],78%,,,
"CC(=NOCC1CC1)Nc1cccc(CO/N=C(/c2ccccc2)c2noc(=O)n2C)n1 [Example 3, N′-(cyclopropylmethoxy)-N-{6-[({[(Z)-(4-methyl-5-oxo-4,5-dihydro-1,2,4-oxadiazol-3-yl)(phenyl)methylene]amino}oxy)methyl]pyridin-2-yl}ethanimidamide]",,99%,3.39,,
Cn1oc(=O)nc1/C(=N\OCc1cccc(C#CC(C)(C)C)n1)c1ccccc1 [Example 11],3.72^[a],100%,,100%,
Cn1c(C(=NOCc2csc(C#CCc3ccccc3)n2)c2ccccc2)noc1=O [Example 19],4.37^[a],90%,,,79%
Cn1oc(=O)nc1/C(=N\OCc1csc(C#CC2CCCCC2)n1)c1ccccc1 [Example 14],4.44^[a],,,,
Cn1c(/C(=N\OCc2cccc(C#Cc3ccccc3)n2)c2ccccc2)noc1=O [Example 15],4.26^[a],80%,,,
CC(=NO)Nc1cccc(CO/N=C(/c2ccccc2)c2nc(=O)on2C)n1 [Example 1],1.29^[a],99%,,,
Cn1oc(=O)nc1C(=NOCc1csc(C=CCc2ccccc2)n1)c1ccccc1 [Example 20],3.85^[a],,,,
Cn1c(C(=NOCc2cccc(C=CC3CC3)n2)c2ccccc2)noc1=O [Example 21],3.48^[a],,,,
Cn1oc(=O)nc1C(=NOCc1csc(C#CCc2ccccc2)n1)c1ccccc1 [Example 18],3.74^[a],98%,,,
Cn1oc(=O)nc1/C(=N\OCc1cccc(C#CC2CC2)n1)c1ccccc1 [Example 6],3.02^[a],,,,
"Cn1oc(=O)nc1/C(=N\OCc1csc(C#CC2CC2)n1)c1ccccc1 [Example 12, 3-[(Z)-({[2-(cyclopropylethynyl)-1,3-thiazol-4-yl]methoxy}imino)(phenyl)methyl]-2-methyl-1,2,4-oxadiazol-5(2H)-one]",,100%,3.13,73%,
CCCCC#Cc1cccc(CO/N=C(/c2ccccc2)c2nc(=O)on2C)n1 [Example 10],3.81^[a],100%,,96%,
"CC(=NO)Nc1cccc(CO/N=C(/c2ccccc2)c2noc(=O)n2C)n1 [Example 2, N′-hydroxy-N-{6-[({[(Z)-(4-methyl-5-oxo-4,5-dihydro-1,2,4-oxadiazol-3-yl)(phenyl)methylene]amino}oxy)methyl]pyridin-2-yl}ethanimidamide]",,100%,1.86,,71%
CCCCON=C(C)Nc1cccc(CO/N=C(/c2ccccc2)c2nc(=O)on2C)n1 [Example 5],3.35^[a],,,,
Cn1oc(=O)nc1C(=NOCc1csc(C=CC2CCCCC2)n1)c1ccccc1 [Example 22],4.64^[a],95%,,,71%
CC(=NOCc1ccccc1)Nc1cccc(CO/N=C(/c2ccccc2)c2nc(=O)on2C)n1 [Example 8],3.09^[a],100%,,92%,
CCCCON=C(C)Nc1cccc(CO/N=C(/c2ccccc2)c2noc(=O)n2C)n1 [Example 7],3.69^[a],100%,,,
Cn1c(C(=NOCc2cccc(C=Cc3ccccc3)n2)c2ccccc2)noc1=O [Example 23],4.37^[a],92%,,,97%
"Cn1oc(=O)nc1/C(=N\OCc1cccc(C#Cc2ccccc2)n1)c1ccccc1 [Example 4, 2-methyl-3-[(Z)-phenyl({[6-(phenylethynyl)pyridin-2-yl]methoxy}imino)methyl]-1,2,4-oxadiazol-5(2H)-one]",,98%,3.63,,

# — patent US9375010B2 (priority 2013, dated 2016)
